Experimental findings from ChEMBL document CHEMBL6103654, “Design, Biological Characterization, and Discovery of Capromorelin Derivatives as Oral Growth Hormone Secretagogue Receptor Type 1a Agonist for the Treatment of Growth Hormone Deficiency” (J Med Chem, 2025) are described below.

Data set [1] concerns CHO. Kind of data set: Agonist activity at human GHSR expressed in CHO cells at maximum concentration incubated for 60 min by FLIPR assay relative to control. The format is cell-based.
A short description of data set [2]: Agonist activity at human GHSR expressed in CHO cells incubated for 60 min by FLIPR assay. To be noted: 1 h. The format is cell-based.
A short description of data set [3]: Agonist activity at monkey GHSR expressed in CHO cells incubated for 60 min by FLIPR assay. The format is cell-based. Particulars: Macaca mulatta, 1 h.
In data set [4] the test system is CHO. Put plainly: Agonist activity at dog GHSR expressed in CHO cells at maximum concentration incubated for 60 min by FLIPR assay relative to control. Type of data set: cell-based. Particulars: Canis lupus familiaris, filed as agonist.
Data set [5] can be described thus: Agonist activity at dog GHSR expressed in CHO cells incubated for 60 min by FLIPR assay. To be noted: 1 h. Type of data set: cell-based.
For data set [6], the target named is Growth hormone secretagogue receptor type 1 (Rattus norvegicus) (UniProt O08725). Kind of data set: Agonist activity at rat GHSR expressed in CHO cells at maximum concentration incubated for 60 min by FLIPR assay relative to control. Type of data set: functional, cell-based. Particulars: filed as agonist.
Growth hormone secretagogue receptor type 1 (Rattus norvegicus), sequence (O08725 whole entry): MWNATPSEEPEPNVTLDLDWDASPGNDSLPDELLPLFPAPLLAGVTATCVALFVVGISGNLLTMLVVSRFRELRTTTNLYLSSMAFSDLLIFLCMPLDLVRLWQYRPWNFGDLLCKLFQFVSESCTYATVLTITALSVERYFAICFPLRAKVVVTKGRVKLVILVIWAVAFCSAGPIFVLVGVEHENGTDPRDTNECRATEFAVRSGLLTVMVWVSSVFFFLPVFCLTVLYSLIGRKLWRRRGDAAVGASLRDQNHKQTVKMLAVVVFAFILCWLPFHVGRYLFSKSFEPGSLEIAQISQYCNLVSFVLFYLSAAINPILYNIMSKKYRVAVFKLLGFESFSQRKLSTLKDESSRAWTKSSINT
In data set [7] the test system is CHO. Put plainly: Agonist activity at monkey GHSR expressed in CHO cells at maximum concentration incubated for 60 min by FLIPR assay relative to control. To be noted: Macaca mulatta, filed as agonist. Type of data set: cell-based.
For data set [8], the target named is Growth hormone secretagogue receptor type 1 (Rattus norvegicus, UniProt O08725). Kind of data set: Agonist activity at rat GHSR expressed in CHO cells incubated for 60 min by FLIPR assay. The format is functional, cell-based.
Growth hormone secretagogue receptor type 1, sequence (O08725 whole entry): as above
Data set [9] can be described thus: Tmax in male Sprague-Dawley rat at 2 mg/kg, po administered as single dose measured after 4 hrs. The format is ADME, organism-based. Particulars: in vivo.
Data set [10] can be described thus: Clearance in male Sprague-Dawley rat plasma at 1 mg/kg, iv administered as single dose measured after 4 hrs. Type of data set: ADME, organism-based.
Data set [11] can be described thus: Cmax in male Sprague-Dawley rat at 2 mg/kg, po administered as single dose measured after 4 hrs. The format is ADME, organism-based. Particulars: in vivo.
Data set [12] in a line: Volume of distribution in male Sprague-Dawley rat at 1 mg/kg, iv administered as single dose measured after 4 hrs. Type of data set: ADME, organism-based. To be noted: in vivo.
Data set [13] in a line: Elimination half life in male Sprague-Dawley rat at 1 mg/kg, iv administered as single dose measured after 4 hrs. The format is ADME, organism-based. To be noted: in vivo, read-out: beta t1/2 (converted).
Data set [14] is described as follows: AUC in male Sprague-Dawley rat at 2 mg/kg, po administered as single dose measured after 4 hrs. Type of data set: ADME, organism-based. Particulars: in vivo.
Data set [15] is described as follows: Oral bioavailability in male Sprague-Dawley rat at 2 mg/kg administered as single dose measured after 4 hrs. Type of data set: ADME, organism-based. Particulars: in vivo.
Data set [16] is described as follows: Elimination half life in male Sprague-Dawley rat at 2 mg/kg, po administered as single dose measured after 4 hrs. Type of data set: ADME, organism-based. To be noted: in vivo, read-out: beta t1/2 (converted).

The EC50 is the concentration needed to bring the measured effect to its halfway point. Regarding `CN1N=C2CCN(C(=O)[C@@H](COCc3ccccc3)NC(=O)C3CCNCC3)C[C@@]2(Cc2ccccc2)C1=O`, the Activity in the data set with CHO [1] was 30.5%; in the data set with CHO [4] it was 91.6%; in data set [6] it was 106%; in the data set on CHO [7], 94.9%. Besides, the EC50 in data set [2] is greater than 1000 nM; in [3], 102 nM; in data set [5], 143 nM; in [8] it was 39.3 nM.

On to `CN1N=C2C3(CC3)CN(C(=O)[C@@H](COCc3ccccc3)NC(=O)C(C)(C)N)C[C@@]2(Cc2ccccc2)C1=O`, for which the Activity in the data set on CHO [1] (filed as agonist) was 82.1%. In [2], this compound came in with an EC50 of 29.8 nM.

In the case of `CC(C)(N)C(=O)N[C@H](COCc1ccccc1)C(=O)N1C2CCC1[C@@]1(Cc3ccccc3)C(=O)NN=C1C2` (stereo partly drawn), in the data set with CHO [1] (filed as agonist), the Activity stood at 41.7%. Further, the EC50 in data set [2] was determined as 447 nM.

`CC(C)(N)C(=O)N[C@H](COCc1ccccc1)C(=O)N1CCC2=NN(C3CCCC3)C(=O)[C@]2(Cc2ccccc2)C1`: the Activity in the data set with CHO [1] (filed as agonist) stood at 121%; in the data set on CHO [4], 117%; in data set [6], 97.2%; in the data set with CHO [7], 110%. In addition, the EC50 in data set [2] was determined as 0.58 nM; in data set [3], 0.051 nM; in data set [5], 0.105 nM; in [8], 0.021 nM.

Take `CN1N=C2CC3CCC(N3C(=O)[C@@H](COCc3ccccc3)NC(=O)C(C)(C)N)[C@@]2(Cc2ccccc2)C1=O` (stereo partly drawn): the Activity with CHO [1] (filed as agonist) came to 104%. In data set [2], this compound returned an EC50 of 10.4 nM.

For the compound `CN1N=C2C(C)(C)CN(C(=O)[C@@H](COCc3ccccc3)NC(=O)C(C)(C)N)C[C@@]2(Cc2ccccc2)C1=O`, the Activity in the data set with CHO [1] (filed as agonist) came out at 82.2%. For the same compound, the EC50 in [2] was 63.7 nM.

Regarding `CC(C)(N)C(=O)N[C@H](COCc1ccccc1)C(=O)N1CCC2=NN(C(F)F)C(=O)[C@]2(Cc2ccccc2)C1`, the Activity with CHO [1] was 11%. The EC50 in [2] was greater than 1000 nM.

In the data set with CHO [1] (filed as agonist), `CC1N(C(=O)[C@@H](COCc2ccccc2)NC(=O)C(C)(C)N)CCC2=NN(C)C(=O)[C@@]21Cc1ccccc1` (stereo partly drawn) displayed an Activity of 97.4%. For the same compound, the midpoint of the response in data set [2], the EC50, lay at 160 nM.

`CC(C)(N)C(=O)N[C@H](COCc1ccccc1)C(=O)N1CCC2=NN(C3COC3)C(=O)[C@]2(Cc2ccccc2)C1` gave an Activity in the data set with CHO [1] (filed as agonist) of 99.2%. The compound also registered an EC50 in data set [2] of 14.7 nM.

The compound `CC(C)(N)C(=O)N[C@H](COCc1ccccc1)C(=O)N1CC(C)(C)C2=NNC(=O)[C@]2(Cc2ccccc2)C1` showed an Activity with CHO [1] of 25.4%. In addition, in [2], it took 53.3 nM to reach a half-maximal effect (EC50).

A word on the Tmax: it is the time at which the peak concentration occurs. One may read the clearance as a measure of how efficiently the substance is removed, as volume per time. What is called Cmax is the maximum level reached in the sampled fluid or tissue. As usually defined, the Vd is a proportionality between amount in the body and measured concentration, not a real space. In the case of `CC(C)(N)C(=O)N[C@H](COCc1ccccc1)C(=O)N1CCC2=NOC(=O)[C@]2(Cc2ccccc2)C1`, in the data set on CHO [1] (filed as agonist), the Activity was 106%. The compound further had an EC50 in data set [2] of 0.87 nM. Besides, in data set [9], the Tmax came out at 15 min. In data set [10], this compound gave a clearance of 169 mL/min/kg. The compound further yielded a Cmax in [11] of 54 ng/mL. Further, the Vd in data set [12] is 22.8 L/kg. Moreover, the half-life in data set [13] is 86.4 min.

Take `Cn1nc2c(c1-c1ccccc1)CCN(C(=O)[C@@H](COCc1ccccc1)NC(=O)C(C)(C)N)C2`: in the data set on CHO [1], the Activity was found to be 18.2%. In [2], this compound gave a 50% effective concentration (EC50) greater than 1000 nM.

Take `CC(C)(N)C(=O)N[C@H](COCc1ccccc1)C(=O)N1CCC2=NN(CC3CC3)C(=O)[C@]2(Cc2ccccc2)C1`: the Activity amounted to 134% in the data set with CHO [1] (filed as agonist), 120% in the data set on CHO [4], 97.1% in [6] and 104% with CHO [7]. Also, the EC50 in data set [2] came out at 0.89 nM; in data set [3] it was 0.034 nM; in data set [5], 0.043 nM; in data set [8] it was 0.009 nM.

`Cn1nc2c(c1-c1ccccc1)CN(C(=O)[C@@H](COCc1ccccc1)NC(=O)C(C)(C)N)CC2` came in with an Activity in the data set on CHO [1] (filed as agonist) of 72%. In data set [2], this compound had an EC50 of 72.4 nM.

Consider `CN1N=C2CCN(C(=O)[C@@H](COCc3ccccc3)NC(=O)C(C)(C)N)C[C@@]2(Cc2ccccc2)C1=O` [CAPROMORELIN], for which the Activity stood at 119% in the data set with CHO [1] (filed as agonist), 155% in the data set with CHO [4], 111% in data set [6] and 109% in the data set with CHO [7]. Besides, the EC50 in data set [2] is 1.37 nM; in [3], 0.074 nM; in data set [5] it was 0.118 nM; in data set [8] it was 0.017 nM.

What is called AUC is concentration integrated over time. Usually bioavailability stands for dose-corrected exposure relative to a reference, in per cent. With `CC(C)(N)C(=O)N[C@H](COCc1ccccc1)C(=O)N1CCC2=NN(C3CCC3)C(=O)[C@]2(Cc2ccccc2)C1`, the Activity in the data set with CHO [1] (filed as agonist) stood at 107%; in the data set on CHO [4] it was 125%; in data set [6] it was 104%; in the data set with CHO [7], 104%. In addition, the EC50 was 1.19 nM in data set [2], 0.02 nM in [3], 0.048 nM in [5] and 0.014 nM in data set [8]. For the same compound, in [9], the Tmax amounted to 30 min. The compound further gave an AUC at 4 h in data set [14] of 21.1 ng·h/mL. Also, in data set [15], the bioavailability turned out to be 3.3%. This compound gave a clearance in [10] of 50.5 mL/min/kg. Also, the Cmax in data set [11] was 8.4 ng/mL. Besides, the half-life is 109 min in data set [16] and 48 min in data set [13]. The same compound showed a Vd in data set [12] of 3.5 L/kg.

Consider `CC(C)(N)C(=O)N[C@H](COCc1ccccc1)C(=O)N1CCC2=NN(C(C)(C)C)C(=O)[C@]2(Cc2ccccc2)C1`, for which the Activity with CHO [1] (filed as agonist) turned out to be 143%; in the data set on CHO [4] it was 123%; in [6] it was 112%; with CHO [7], 99.3%. Moreover, the EC50 in data set [2] came out at 1.34 nM; in data set [3], 0.044 nM; in data set [5] it was 0.071 nM; in data set [8] it was 0.016 nM.

Regarding `CC(C)(N)C(=O)N[C@H](COCc1ccccc1)C(=O)N1CCC2=NN(C(F)(F)F)C(=O)[C@]2(Cc2ccccc2)C1`, the Activity was found to be 106% in the data set with CHO [1] (filed as agonist), 115% in the data set with CHO [4], 96% in data set [6] and 103% in the data set on CHO [7]. Further, the EC50 in [2] was determined as 0.58 nM; in data set [3], 0.062 nM; in [5], 0.077 nM; in [8], 0.012 nM. Also, the time to peak (Tmax) in data set [9] was found to be 19.8 min. In data set [14], this compound yielded an AUC at 4 h of 214 ng·h/mL. This compound came in with a bioavailability in [15] of 44.8%. The compound also displayed a clearance in data set [10] of 70.9 mL/min/kg. In data set [11], the peak concentration (Cmax) was 219 ng/mL. The half-life is 72 min in data set [16] and 178 min in data set [13]. In data set [12], this compound registered a Vd of 16.1 L/kg.

In the case of `CC(C)(N)C(=O)N[C@H](COCc1ccccc1)C(=O)N1CCC2=NN(C3CCCCC3)C(=O)[C@]2(Cc2ccccc2)C1`, the Activity with CHO [1] (filed as agonist) was 137%. In [2], the EC50 came to 2.63 nM.

`CC(C)(N)C(=O)N[C@H](COCc1ccccc1)C(=O)N1CCc2ccn(Cc3ccccc3)c2C1` returned an Activity in the data set with CHO [1] (filed as agonist) of 47.6%. In data set [2], this compound returned an EC50 of 735 nM.
